Experimental data from patent publication US12319652B2, “Salts and solid forms of (R)-1-(5-methoxy-1H-indol-1-yl)-N,N-dimethylpropan-2-amine” (priority 2021, dated 2025).

Assays:
[1] = Qualitative solubility screen of Compound 1 Fumarate in solvents; format: physicochemical
Procedure: The salt compound also dissolved in refluxing methylisobutyketone (MIBK) at 15 vol concentration. Consistent with Example 1, the solutions formed were cooled and the IPA, 2-MeTHF and MIBK solutions yielded solid material on cooling. The solid product obtained from MIBK was analyzed by XRPD, TG and ^1H NMR—the XRPD diffractogram is provided as FIG. 1 and the ^1H NMR spectrum is provided as FIG. 2.
Compound 1·Fumarate was soluble in many of the common solvents assessed (predominantly Classes 2 and 3 solvents) at 5.0 vol (200 mg/ml), 10.0 vol, 15.0 vol and 20.0 vol (refer to Table). Solids were isolated on cooling from isopropanol (IPA, 5.0 vol), 2-MeTHF (5.0 vol) and methylisobutylketone (MIBK, 15.0 vol). The products from IPA and 2-MeTHF were gums, and not pursued further.
Compound 1 Fumarate (batch 1, 25 mg, 1 wt) was weighed out in 20 separate vials to qualitatively examine the solubility in an array of diverse solvents. […] If insoluble at 5 vol, the solvent quantity was increased to 10 vol, 15 vol and 20 vol of the respective solvent. The suspensions that occurred upon cooling down were centrifuged and the solvent wet pellets were analysed by XRPD. The insoluble suspensions were additionally worked up for XRPD analysis. The resultant powder patterns were subsequently cross-referenced against the input supplied material.

[2] = Suspension equilibration of Compound 1 HCl at 20 and 40° C.
Procedure: The purpose of this panel was to determine if Form A evolves into a supra-ordinate form, the companion panel at 40° C. set-point was in place to detect enantiotropic behavior via different relative proportions in different solvents.
All isolated products, both wet and dry were consistent with Form A at both temperatures.

[3] = 2-Propanol 5.0 vol, panel at 40° C.
[4] = Acetone 5.0 vol, equilibration at 20° C.
[5] = Acetone 5.0 vol, panel at 40° C.
[6] = Acetone/Water (5% v/v, 0.5 aw) 5.0 vol, equilibration at 20° C.
[7] = Acetonitrile 5.0 vol, panel at 40° C.
[8] = Chlorobenzene 5.0 vol, equilibration at 20° C.
[9] = Chlorobenzene 5.0 vol, panel at 40° C.
[10] = DCM 5.0 vol, equilibration at 20° C.
[11] = EtOAc 5.0 vol, equilibration at 20° C.
[12] = EtOH 5.0 vol, equilibration at 20° C.
[13] = Ethanol 5.0 vol, panel at 40° C.
[14] = Ethyl acetate 5.0 vol, panel at 40° C.
[15] = Ethyl formate 5.0 vol, equilibration at 20° C.
[16] = Ethyl formate 5.0 vol, panel at 40° C.
[17] = Heptane 5.0 vol, equilibration at 20° C.
[18] = Heptane 5.0 vol, panel at 40° C.
[19] = Isopropanol/Water (12% v/v, 0.5 aw) 5.0 vol, equilibration at 20° C.
[20] = Isopropyl acetate 5.0 vol, equilibration at 20° C.
[21] = Isopropyl acetate 5.0 vol, panel at 40° C.
[22] = MEK 5.0 vol, equilibration at 20° C.
[23] = MeCN 5.0 vol, equilibration at 20° C.
[24] = MeOH 5.0 vol, equilibration at 20° C.
[25] = Methanol 5.0 vol, panel at 40° C.
[26] = Methyl acetate 5.0 vol, equilibration at 20° C.
[27] = Methyl acetate 5.0 vol, panel at 40° C.
[28] = Nitromethane 5.0 vol, panel at 40° C.
[29] = TBME 5.0 vol, equilibration at 20° C.
[30] = Toluene 5.0 vol, panel at 40° C.
[31] = Water 5.0 vol, equilibration at 20° C.

COc1ccc2c(ccn2C[C@@H](C)[NH+](C)C)c1.O=C(O)/C=C/C(=O)O [Compound 1 fumarate, (R)-1-(5-methoxy-1H-indol-1-yl)-N,N-dimethylpropan-2-amine fumarate]
Solid on cooling ([1]; 2-MeTHF, 5 vol): Yes | Solution at reflux ([1]; 2-MeTHF, 5 vol (200 mg/ml), fumarate): ✓ | Solution at reflux ([1]; 2-MeTHF, 5 vol (200 mg/ml), listed as fumarate salt, fumarate): soluble | Solution at 20° C. ([1]; Acetone, 5 vol (200 mg/ml), fumarate): ✓ | Solution at 20° C. ([1]; Acetone, 5 vol (200 mg/ml), listed as fumarate salt, fumarate): soluble | Solution at 20° C. ([1]; Butanol, 5 vol (200 mg/ml), fumarate): ✓ | Solution at 20° C. ([1]; Butanol, 5 vol (200 mg/ml), listed as fumarate salt, fumarate): soluble | Solution at 20° C. ([1]; DCM, 5 vol (200 mg/ml), fumarate): ✓ | Solution at 20° C. ([1]; DCM, 5 vol (200 mg/ml), listed as fumarate salt, fumarate): soluble | Solid on cooling ([1]; Dioxane, 5 vol): No | Solution at 40° C. ([1]; Dioxane, 5 vol (200 mg/ml), fumarate): ✓ | Solution at 40° C. ([1]; Dioxane, 5 vol (200 mg/ml), listed as fumarate salt, fumarate): soluble | Solution at 20° C. ([1]; Ethanol, 5 vol (200 mg/ml), fumarate): ✓ | Solution at 20° C. ([1]; Ethanol, 5 vol (200 mg/ml), listed as fumarate salt, fumarate): soluble | Solid on cooling ([1]; IPA, 5 vol): Yes | Solution at 40° C. ([1]; IPA, 5 vol (200 mg/ml), fumarate): ✓ | Solution at 40° C. ([1]; IPA, 5 vol (200 mg/ml), listed as fumarate salt, fumarate): soluble | Solution at 20° C. ([1]; MEK, 5 vol (200 mg/ml), fumarate): ✓ | Solution at 20° C. ([1]; MEK, 5 vol (200 mg/ml), listed as fumarate salt, fumarate): soluble | Solid on cooling ([1]; MIBK, 10, 15 & 20 vol): Yes | Solution at reflux ([1]; MIBK, 10, 15 & 20 vol): ✓ | Dissolution in refluxing methylisobutyketone (MIBK) ([1]; MIBK, reflux, 15 vol concentration): dissolved | Solution at 20° C. ([1]; MeCN, 5 vol (200 mg/ml), fumarate): ✓ | Solution at 20° C. ([1]; MeCN, 5 vol (200 mg/ml), listed as fumarate salt, fumarate): soluble | Solution at 20° C. ([1]; Methanol, 5 vol (200 mg/ml), fumarate): ✓ | Solution at 20° C. ([1]; Methanol, 5 vol (200 mg/ml), listed as fumarate salt, fumarate): soluble | Solution at 20° C. ([1]; THF, 5 vol (200 mg/ml), fumarate): ✓ | Solution at 20° C. ([1]; THF, 5 vol (200 mg/ml), listed as fumarate salt, fumarate): soluble | Solution at 20° C. ([1]; Water, 5 vol (200 mg/ml), fumarate): ✓ | Solution at 20° C. ([1]; Water, 5 vol (200 mg/ml), listed as fumarate salt, fumarate): soluble

COc1ccc2c(ccn2C[C@@H](C)N(C)C)c1.Cl [Compound 1 HCl]
Observations (t = 0 @ 20° C.) ([2]; 2-Propanol 5.0 vol, equilibration at 20° C.): Suspension | Observations (t = 0 @ 20° C.) [2, 3]: Suspension | Observations (t = 1 d @ 20° C.) [2, 3]: Suspension | Observations (t = 0 @ 20° C.) [2, 4]: Suspension | Observations (t = 1 d @ 20° C.) [2, 4]: Suspension | Observations (t = 10 d @ 20° C.) [2, 4]: White Paste | Observations (t = 0 @ 20° C.) [2, 5]: Suspension | Observations (t = 1 d @ 20° C.) [2, 5]: Suspension | Observations (t = 10 d @ 20° C.) [2, 5]: Yellow susp. | Observations (t = 0 @ 20° C.) [2, 6]: Suspension | Observations (t = 1 d @ 20° C.) [2, 6]: Suspension | Observations (t = 10 d @ 20° C.) [2, 6]: Pink paste | Observations (t = 0 @ 20° C.) ([2]; Acetone/Water (5% v/v, 0.5 aw) 5.0 vol, panel at 40° C.): Suspension | Observations (t = 0 @ 20° C.) [2, 7]: Suspension | Observations (t = 1 d @ 20° C.) [2, 7]: Suspension | Observations (t = 0 @ 20° C.) [2, 8]: Suspension | Observations (t = 1 d @ 20° C.) [2, 8]: Suspension | Observations (t = 0 @ 20° C.) [2, 9]: Suspension | Observations (t = 1 d @ 20° C.) [2, 9]: Suspension | Observations (t = 0 @ 20° C.) [2, 10]: Suspension | Observations (t = 1 d @ 20° C.) [2, 10]: Suspension | Observations (t = 10 d @ 20° C.) [2, 10]: Pink paste | Observations (t = 0 @ 20° C.) ([2]; DCM 5.0 vol, panel at 40° C.): Suspension | Observations (t = 1 d @ 20° C.) ([2]; DCM 5.0 vol, panel at 40° C.): Suspension | Observations (t = 0 @ 20° C.) [2, 11]: Suspension | Observations (t = 1 d @ 20° C.) [2, 11]: Suspension | Observations (t = 10 d @ 20° C.) [2, 11]: White paste | Observations (t = 0 @ 20° C.) [2, 12]: Suspension | Observations (t = 1 d @ 20° C.) [2, 12]: Suspension | Observations (t = 10 d @ 20° C.) [2, 12]: Pink paste | Observations (t = 0 @ 20° C.) [2, 13]: Suspension | Observations (t = 1 d @ 20° C.) [2, 13]: Suspension | Observations (t = 0 @ 20° C.) ([2]; Ethanol/Water (15% v/v, 0.5 aw) 5.0 vol, equilibration at 20° C.): Suspension | Observations (t = 0 @ 20° C.) [2, 14]: Suspension | Observations (t = 1 d @ 20° C.) [2, 14]: Suspension | Observations (t = 0 @ 20° C.) [2, 15]: Suspension | Observations (t = 1 d @ 20° C.) [2, 15]: Suspension | Observations (t = 0 @ 20° C.) [2, 16]: Suspension | Observations (t = 1 d @ 20° C.) [2, 16]: Suspension | Observations (t = 0 @ 20° C.) [2, 17]: Suspension | Observations (t = 1 d @ 20° C.) [2, 17]: Suspension | Observations (t = 0 @ 20° C.) [2, 18]: Suspension | Observations (t = 1 d @ 20° C.) [2, 18]: Suspension | Observations (t = 0 @ 20° C.) [2, 19]: Suspension | Observations (t = 1 d @ 20° C.) [2, 19]: Partial | Observations (t = 0 @ 20° C.) ([2]; Isopropanol/Water (12% v/v, 0.5 aw) 5.0 vol, panel at 40° C.): Suspension | Observations (t = 0 @ 20° C.) [2, 20]: Suspension | Observations (t = 1 d @ 20° C.) [2, 20]: Suspension | Observations (t = 0 @ 20° C.) [2, 21]: Suspension | Observations (t = 1 d @ 20° C.) [2, 21]: Suspension | Observations (t = 0 @ 20° C.) [2, 22]: Suspension | Observations (t = 1 d @ 20° C.) [2, 22]: Suspension | Observations (t = 0 @ 20° C.) ([2]; MEK 5.0 vol, panel at 40° C.): Suspension | Observations (t = 1 d @ 20° C.) ([2]; MEK 5.0 vol, panel at 40° C.): Suspension | Observations (t = 0 @ 20° C.) [2, 23]: Suspension | Observations (t = 1 d @ 20° C.) [2, 23]: Suspension | Observations (t = 10 d @ 20° C.) [2, 23]: White Paste | Observations (t = 0 @ 20° C.) [2, 24]: Suspension | Observations (t = 1 d @ 20° C.) [2, 24]: Suspension | Observations (t = 0 @ 20° C.) ([2]; MeTHE 5.0 vol, equilibration at 20° C.): Suspension | Observations (t = 0 @ 20° C.) ([2]; MeTHF 5.0 vol, panel at 40° C.): Suspension | Observations (t = 1 d @ 20° C.) ([2]; MeTHF 5.0 vol, panel at 40° C.): Suspension | Observations (t = 0 @ 20° C.) [2, 25]: Suspension | Observations (t = 1 d @ 20° C.) [2, 25]: Suspension | Observations (t = 0 @ 20° C.) [2, 26]: Suspension | Observations (t = 1 d @ 20° C.) [2, 26]: Suspension | Observations (t = 0 @ 20° C.) [2, 27]: Suspension | Observations (t = 1 d @ 20° C.) [2, 27]: Suspension | Observations (t = 0 @ 20° C.) ([2]; Nitromethane 5.0 vol, equilibration at 20° C.): Suspension | Observations (t = 0 @ 20° C.) [2, 28]: Suspension | Observations (t = 1 d @ 20° C.) [2, 28]: Suspension | Observations (t = 0 @ 20° C.) [2, 29]: Suspension | Observations (t = 1 d @ 20° C.) [2, 29]: Suspension | Observations (t = 10 d @ 20° C.) [2, 29]: White Paste | Observations (t = 0 @ 20° C.) ([2]; THF 5.0 vol, equilibration at 20° C.): Suspension | Observations (t = 0 @ 20° C.) ([2]; THF 5.0 vol, panel at 40° C.): Suspension | Observations (t = 1 d @ 20° C.) ([2]; THF 5.0 vol, panel at 40° C.): Suspension | Observations (t = 0 @ 20° C.) ([2]; Toluene 5.0 vol, equilibration at 20° C.): Suspension | Observations (t = 0 @ 20° C.) [2, 30]: Suspension | Observations (t = 1 d @ 20° C.) [2, 30]: Suspension | Observations (t = 0 @ 20° C.) [2, 31]: Solution | Observations (t = 1 d @ 20° C.) [2, 31]: Solution | Observations (t = 0 @ 20° C.) ([2]; Water 5.0 vol, panel at 40° C.): Solution | Observations (t = 10 d @ 20° C.) ([2]; Water 5.0 vol, panel at 40° C.): Orange susp. | Observations (t = 0 @ 20° C.) ([2]; tBME 5.0 vol, panel at 40° C.): Suspension | Observations (t = 1 d @ 20° C.) ([2]; tBME 5.0 vol, panel at 40° C.): Suspension
